Target: T1, PIN1-CD (catalytic PIN1 domain, devoid of the PIN1 WW domain) (Homo sapiens, UniProt Q13526)
T1 construct: PIN1 peptide containing the catalytic peptidyl-prolyl isomerase domain but devoid of the PIN1 WW domain
Test: Dissociation constant (Kd) with PIN1 catalytic domain
Format: binding
Details: peptide containing the catalytic PIN1 domain
Text: In Table 1, the Ki data reported under the PIN1—CD heading corresponds to testing with PIN1 peptide containing the catalytic peptidyl-prolyl isomerase domain but devoid of the PIN1 WW domain. Similarly, the dissociation constant (Kd) data under PIN1-CD refers to testing with a peptide containing the catalytic PIN1 domain but devoid of the PIN1 WW domain.

T1 sequence (Q13526 52-163 limits assumed): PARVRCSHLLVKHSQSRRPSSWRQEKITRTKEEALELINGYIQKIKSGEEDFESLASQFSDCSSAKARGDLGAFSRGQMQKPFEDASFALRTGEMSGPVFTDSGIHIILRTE

Row | Compound | Kd [nM]
1 | O=C(N[C@@H](COP(=O)(O)O)Cc1ccccc1)c1cc2ccccc2[s+]1[O-] (stereo in doubt) [25-2′, Phosphoric acid mono-(2-{[1-(1-oxo-benzo[b]thiophen-2-yl)-methanoyl]-amino}-3-phenyl-propyl)ester] | < 1000
2 | NS(=O)(=O)OC[C@@H](Cc1ccccc1)NC(=O)c1ccc2ccccc2c1 [Example 72, Sulfamic acid 2-[(1-naphthalen-2-yl-methanoyl)-amino]-3-phenyl-propyl ester] | < 100000
3 | O=C(N[C@@H](COP(=O)(O)O)Cc1ccccc1)c1cc2ccccc2[nH]1 [Example 25-18, Phosphoric acid mono-{2-[(1-1H-indol-2-yl-methanoyl)-amino]-3-phenyl-propyl}ester] | < 1000
4 | O=C(N[C@@H](COP(=O)(O)O)Cc1ccccc1)c1cnc2ccccc2n1 [Example 25-11, Phosphoric acid mono-{3-phenyl-2-[(1-quinoxalin-2-yl-methanoyl)-amino]-propyl}ester] | < 1000
5 | O=C(N[C@@H](COP(=O)(O)O)Cc1ccccc1)c1cc2ccccc2cc1O [Example 25-22, Phosphoric acid mono-(2-{[1-(3-hydroxy-naphthalen-2-yl)-methanoyl]-amino}-3-phenyl-propyl)ester] | < 1000
6 | O=C(N[C@@H](COP(=O)(O)O)Cc1ccccc1)c1ccc2cc(O)ccc2c1 [Example 25-20, Phosphoric acid mono-(2-{[1-(6-hydroxy-naphthalen-2-yl)-methanoyl]-amino}-3-phenyl-propyl)ester] | < 1000
7 | CN(C(=O)c1ccc2ccccc2c1)C(COP(=O)(O)O)Cc1ccccc1 (stereo not shown) [Example 58, Phosphoric acid mono-{[methyl-(1-naphthalen-2-yl-methanoyl)-amino]-phenyl-propyl}ester] | < 10000
8 | COc1c(C(=O)N[C@@H](COP(=O)(O)O)Cc2ccccc2)csc1Cl [Example 25-6, Phosphoric acid mono-(2{[1-(5-chloro-4-methoxy-thiophen-3-yl)-methanoyl]-amino}-3-phenyl-propyl)ester] | < 1000
9 | O=C(N[C@@H](COP(=O)(O)O)Cc1ccccc1)c1ccccc1O [Example 25-13, Phosphoric acid mono-(2-{[1-(2-hydroxy-phenyl)-methanoyl]-amino}-3-phenyl-propyl)ester] | < 10000
10 | COc1ccc2cc(C(=O)N[C@@H](COP(=O)(O)O)Cc3ccccc3)ccc2c1 [Example 25-25, Phosphoric acid mono-(2-{[1-(6-methoxy-naphthalen-2-yl)-methanoyl]-amino}-3-phenyl-propyl)ester] | < 1000
11 | O=C(N[C@@H](COP(=O)(O)O)Cc1ccccc1)c1ccc2ccccc2c1O [Example 25-21] | < 1000
12 | O=C(N[C@@H](COP(=O)(O)O)Cc1ccccc1)c1cccc2ccccc12 [Example 25-10, Phosphoric acid mono-{2-[(1-naphthalen-1-yl-methanoyl)-amino]-3-phenyl-propyl}ester] | < 1000
13 | O=C(N[C@@H](COP(=O)(O)O)Cc1ccccc1)c1sccc1Cl [Example 25-12] | < 1000
14 | O=C(N[C@@H](COP(=O)(O)O)Cc1ccccc1)c1ccc(Cl)c(Cl)c1 [Example 25-5, Phosphoric acid mono-(2-{[1-(3,4-dichloro-phenyl)-methanoyl]amino}-3-phenyl-propyl)ester] | < 1000
15 | O=C(N[C@@H](COP(=O)(O)O)Cc1ccccc1)c1ccc(Oc2cc(Cl)cc(Cl)c2)o1 [Example 25-4, Phosphoric acid mono-[2-({1-[5-(3,5-dichloro-phenoxy)-furan-2-yl]-methanoyl}-amino)-3-phenyl-propyl]ester] | < 1000
16 | O=C(Nc1ccccc1Oc1ccccc1)N[C@@H](COP(=O)(O)O)Cc1ccccc1 [Example 23b, Phosphoric acid mono-{2-[3-(2-phenoxy-phenyl)-ureido]-3-phenyl-propyl}ester] | < 1000
